Laboratory results from ChEMBL document CHEMBL5500323, “Plasmodium falciparum topoisomerases: Emerging targets for anti-malarial therapy” (Eur J Med Chem, 2024).
One block for each compound: values may come before it.

Columns and labels:
[1] = Inhibition of DNA topoisomerase II (unknown origin); design: species or system Homo sapiens
[2] = Inhibition of recombinant Plasmodium falciparum strain 3D7 Gyrase B expressed in Escherichia coli BL21 (DE3)
DNA gyrase = DNA gyrase (Escherichia coli, UniProt P0AES4+P0AES6); assay: Inhibition of Escherichia coli DNA gyrase ATPase activity incubated for 80 mins; assay type: protein-complex assay
[3] = Inhibition of Plasmodium falciparum NF54 Gyrase B
[4] = Inhibition of Plasmodium falciparum 3D7 Gyrase B
[5] = Inhibition of C-terminal 6His-tagged Plasmodium falciparum Gyrase B expressed in Escherichia coli
DNA topoisomerase 2 = target: T1, DNA topoisomerase 2 (Plasmodium falciparum K1, UniProt P41001); assay: Inhibition of Plasmodium falciparum isolate K1 DNA topoisomerase 2
T1 sequence (P41001 whole entry): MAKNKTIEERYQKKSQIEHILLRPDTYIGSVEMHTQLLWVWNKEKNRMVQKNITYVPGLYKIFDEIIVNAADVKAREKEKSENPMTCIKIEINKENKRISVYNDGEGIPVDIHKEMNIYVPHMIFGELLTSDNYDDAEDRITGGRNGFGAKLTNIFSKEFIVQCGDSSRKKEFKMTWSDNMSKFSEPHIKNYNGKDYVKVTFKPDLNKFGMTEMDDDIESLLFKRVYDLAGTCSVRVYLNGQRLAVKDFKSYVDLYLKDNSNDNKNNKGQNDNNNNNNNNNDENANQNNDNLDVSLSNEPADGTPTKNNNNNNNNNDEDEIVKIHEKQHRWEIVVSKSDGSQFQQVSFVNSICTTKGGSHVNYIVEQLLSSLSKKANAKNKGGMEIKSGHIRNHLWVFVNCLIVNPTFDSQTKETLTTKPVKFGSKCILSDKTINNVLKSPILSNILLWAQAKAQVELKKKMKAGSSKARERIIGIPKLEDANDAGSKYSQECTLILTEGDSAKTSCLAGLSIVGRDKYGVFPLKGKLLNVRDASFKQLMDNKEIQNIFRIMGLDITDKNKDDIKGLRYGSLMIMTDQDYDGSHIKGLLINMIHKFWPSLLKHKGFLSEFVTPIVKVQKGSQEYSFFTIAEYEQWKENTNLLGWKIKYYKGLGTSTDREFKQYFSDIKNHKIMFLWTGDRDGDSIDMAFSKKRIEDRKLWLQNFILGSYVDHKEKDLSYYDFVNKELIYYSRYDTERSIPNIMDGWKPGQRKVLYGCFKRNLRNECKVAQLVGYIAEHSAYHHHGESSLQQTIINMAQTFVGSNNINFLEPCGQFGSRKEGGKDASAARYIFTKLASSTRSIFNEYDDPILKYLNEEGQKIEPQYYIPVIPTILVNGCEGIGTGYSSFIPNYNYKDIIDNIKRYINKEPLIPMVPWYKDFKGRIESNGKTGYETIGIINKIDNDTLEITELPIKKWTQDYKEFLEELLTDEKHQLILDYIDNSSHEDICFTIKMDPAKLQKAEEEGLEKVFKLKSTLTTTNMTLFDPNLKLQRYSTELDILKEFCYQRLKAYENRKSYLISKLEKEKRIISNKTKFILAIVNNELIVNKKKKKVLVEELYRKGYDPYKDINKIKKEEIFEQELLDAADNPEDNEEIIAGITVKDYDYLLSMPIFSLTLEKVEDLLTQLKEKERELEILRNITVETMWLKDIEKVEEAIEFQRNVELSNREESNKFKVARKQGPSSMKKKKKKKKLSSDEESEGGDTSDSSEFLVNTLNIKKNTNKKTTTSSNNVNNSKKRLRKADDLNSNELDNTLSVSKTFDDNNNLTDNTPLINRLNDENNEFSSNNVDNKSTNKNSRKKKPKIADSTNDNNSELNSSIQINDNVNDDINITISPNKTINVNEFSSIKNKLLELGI

[6] = Inhibition of Plasmodium falciparum DNA topoisomerase VI

SMILES: CO[C@@H]1[C@@H](OC(=O)c2ccc(C)[nH]2)[C@@H](O)[C@H](Oc2ccc3c(O)c(NC(=O)c4c[nH]c(C(=O)Nc5c(O)c6ccc(O[C@@H]7OC(C)(C)[C@H](OC)[C@@H](OC(=O)c8ccc(C)[nH]8)[C@H]7O)c(C)c6oc5=O)c4C)c(=O)oc3c2C)OC1(C)C
IC50 [2]: 40 µM

SMILES: O=C1c2ccccc2C(=O)c2c1cc(S(=O)(=O)O)c(O)c2O [Alizarin Red S]
IC50 (DNA gyrase): 55.6 µM

SMILES: O=C(O)c1cn(C2CC2)c2cc(N3CCNCC3)c(F)cc2c1=O [CIPROFLOXACIN]
IC50 [1]: 35 µM

SMILES: NC1CCN(c2c(F)cc3c(=O)c(C(=O)O)cn(C4CC4)c3c2Cl)C1 (configuration not stated) [CLINAFLOXACIN]
IC50 [3]: 3.2 µM

SMILES: C[n+]1c2cc(N)ccc2cc2ccc(N)cc21 [EUFLAVINE]
IC50 [4]: 1 µM

SMILES: O=c1c(O)cccc2cc(O)c(O)c(O)c12 [PURPUROGALLIN]
IC50 (DNA gyrase): 9.56 µM

Further lines, results first:

IC50 [1]: 0.6 µM
SMILES: COc1ccc2ncc(C#N)c(CCN3CCC(NCc4cc5c(cn4)OCS5)CC3)c2c1

IC50 [1]: 20 µM
SMILES: COc1cc([C@@H]2c3cc4c(cc3[C@@H](O[C@@H]3O[C@@H]5CO[C@@H](C)O[C@H]5[C@H](O)[C@H]3O)[C@H]3COC(=O)[C@H]23)OCO4)cc(OC)c1O [ETOPOSIDE]

IC50 [3]: 12 µM
SMILES: COc1c(N2CCNC(C)C2)c(F)cc2c(=O)c(C(=O)O)cn(C3CC3)c12 (configuration not stated) [GATIFLOXACIN]

IC50 [5]: 30 µM
SMILES: CO[C@@H]1[C@@H](OC(N)=O)[C@@H](O)[C@H](Oc2ccc3c(O)c(NC(=O)c4ccc(O)c(CC=C(C)C)c4)c(=O)oc3c2C)OC1(C)C [NOVOBIOCIN]

IC50 (DNA topoisomerase 2): 5.5 µM
SMILES: COc1ccc2nc3cc(Cl)ccc3c(Nc3cc(CN4CCCC4)c(O)c(CN4CCCC4)c3)c2n1 [PYRONARIDINE]

IC50 [6]: 80 µM
SMILES: C[C@@H]1C[C@H]2O[C@@H]2/C=C\C=C\C(=O)Cc2c(Cl)c(O)cc(O)c2C(=O)O1 [RADICICOL]
